The results in this text go back to ChEMBL document CHEMBL4020755, “Design, synthesis, and biological evaluation of deuterated apalutamide with improved pharmacokinetic profiles” (Bioorg Med Chem Lett, 2017).

Molecules are shown by their SMILES.

Format in all cases: ADME, organism-based
What all share (details): in vivo, po

Data set [1] is described as follows: Half life in Balb/c mouse at 10 mg/kg administered orally measured up to 24 hrs by LC-MS/MS analysis.
Data set [2] in a line: Cmax in Balb/c mouse at 10 mg/kg administered orally measured up to 24 hrs by LC-MS/MS analysis. Also on record: dose 10 mg/kg, route oral.
The nature of data set [3]: Tmax in Balb/c mouse at 10 mg/kg administered orally measured up to 24 hrs by LC-MS/MS analysis.
Data set [4] can be described thus: AUC (0 to 24 hrs) in Balb/c mouse at 10 mg/kg administered orally measured up to 24 hrs by LC-MS/MS analysis. Further details: dose 10 mg/kg, time < 24 hr, route oral.
The nature of data set [5]: Half life in Sprague-Dawley rat 10 mg/kg administered orally measured up to 24 hrs by LC-MS/MS analysis.
Data set [6] can be described thus: AUC (0 to infinity) in Sprague-Dawley rat at 10 mg/kg administered orally measured up to 24 hrs by LC-MS/MS analysis. Further details: dose 10 mg/kg, route oral, time infinity.
Data set [7] is described as follows: Cmax in Sprague-Dawley rat at 10 mg/kg administered orally measured up to 24 hrs by LC-MS/MS analysis. Also on record: dose 10 mg/kg, route oral.
Data set [8] in a line: Mean residence time in Sprague-Dawley rat 10 mg/kg administered orally measured up to 24 hrs by LC-MS/MS analysis.

Consider `[2H]C1([2H])CC([2H])([2H])C12C(=O)N(c1cnc(C#N)c(C(F)(F)F)c1)C(=S)N2c1ccc(C(=O)NC)c(F)c1`, for which the half-life in data set [1] is 32.3 h. In data set [2], the concentration peaked (Cmax) at 2170 ng/mL. Besides, the Tmax in data set [3] was 6 h. This compound also returned an AUC(0-t) at 24 h in data set [4] of 41100 ng·h/mL.
Consider `[2H]c1cc(C(=O)NC)c(F)c([2H])c1N1C(=S)N(c2cnc(C#N)c(C(F)(F)F)c2)C(=O)C12CCC2`, for which the half-life in data set [1] is 6.6 h. For the same compound, the peak level in data set [2] (Cmax) was 3480 ng/mL. Further, the Tmax in data set [3] turned out to be 6 h. For the same compound, the area under the curve AUC(0-t) at 24 h in data set [4] was 63800 ng·h/mL.
Take `[2H]C([2H])([2H])NC(=O)c1ccc(N2C(=S)N(c3cnc(C#N)c(C(F)(F)F)c3)C(=O)C23CCC3)cc1F`: the half-life was 8.9 h in data set [5] and 32.3 h in data set [1]. Moreover, the AUC(0-inf) in data set [6] is 28700 ng·h/mL. For the same compound, the Cmax stood at 1700 ng/mL in data set [7] and 4480 ng/mL in data set [2]. In addition, in data set [8], the mean residence time (MRT) came out at 13 h. For the same compound, in data set [3], the Tmax came out at 4 h. In data set [4], the AUC(0-t) at 24 h came to 87800 ng·h/mL.
With `CNC(=O)c1ccc(N2C(=S)N(c3cnc(C#N)c(C(F)(F)F)c3)C(=O)C23CCC3)cc1F` [APALUTAMIDE], the figures for the half-life in data set [5] and in data set [1] were 7.4 h and 5.9 h, respectively. This compound displayed an AUC(0-inf) in data set [6] of 14800 ng·h/mL. The Cmax in data set [7] is 946 ng/mL; in data set [2] it was 3320 ng/mL. The MRT in data set [8] turned out to be 10.7 h. Besides, in data set [3], the time of peak concentration (Tmax) worked out at 6 h. In addition, the area under the curve AUC(0-t) at 24 h in data set [4] is 61600 ng·h/mL.
The compound `[2H]c1cc(C(=O)NC([2H])([2H])[2H])c(F)c([2H])c1N1C(=S)N(c2cnc(C#N)c(C(F)(F)F)c2)C(=O)C12CCC2` gave a half-life in data set [1] of 54.9 h. The compound further yielded a Cmax in data set [2] of 3940 ng/mL. Also, the Tmax in data set [3] is 4 h. For the same compound, the AUC(0-t) at 24 h in data set [4] came out at 80600 ng·h/mL.
